Key:
[1] = test system: male dd-strain mice; test: acute toxicity test; assay type: in vivo
Experimental: […]. The Minimum lethal dose (MLD) of the compounds was determined by observing whether or not the mice were alive after 7 days of the administration.

[2] = target: T1, Adenosine A₁ Receptor (Cavia porcellus, UniProt P47745); test: Adenosine A1 receptor binding (3H-CHA binding); parameters: species or system guinea pig; conditions: for Ratio of Ki Values [A₂/A₁]: A₂ Ki (rat corpus striatum) / A₁ Ki (guinea pig cerebrum); for Ki: calculated from Cheng-Prusoff's equation, ³H-CHA; for Ki / inhibition at 100 µM / inhibition at 10 µM: guinea pig cerebrum; for inhibition at 100 µM: concentration of tested compound 10⁻⁴ M; for inhibition at 100 µM / inhibition at 10 µM: ³H-CHA 1.1 nM; for inhibition at 10 µM: concentration of tested compound 10⁻⁵ M
T1 construct: from tissue; host or cells: guinea pig cerebrum membrane preparation
T1 sequence (P47745 1-326): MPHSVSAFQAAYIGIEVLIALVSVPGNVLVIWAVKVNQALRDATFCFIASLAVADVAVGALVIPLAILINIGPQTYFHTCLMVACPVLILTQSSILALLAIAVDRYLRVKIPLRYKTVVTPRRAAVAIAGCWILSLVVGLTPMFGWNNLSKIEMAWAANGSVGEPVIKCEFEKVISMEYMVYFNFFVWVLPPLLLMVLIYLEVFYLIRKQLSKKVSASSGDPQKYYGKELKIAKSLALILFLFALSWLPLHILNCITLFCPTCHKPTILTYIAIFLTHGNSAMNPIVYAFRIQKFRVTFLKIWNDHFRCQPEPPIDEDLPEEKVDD
Experimental: Cerebrum of a guinea pig was suspended into ice cooled 50 mM tris hydroxymethyl aminomethane hydrochloride (Tris HCl) buffer (pH = 7.7), by using Polytron homogenizer (manufactured by Kinematica Co.). The suspension was centrifuged (50,000 x g, 10 minutes), and the precipitate was resuspended by adding the same volume of 50 mM Tris HCl buffer. The suspension was centrifuged under the same conditions, and the precipitate obtained was suspended once again by adding 10 volumes of 50 mM Tris HCl. The tissue suspension was incubated at 37°C for 30 minutes in the presence of 0.02 units/mg tissue of adenosine deaminase (manufactured by Sigma Co.). The resulting tissue suspension was recentrifuged (50,000 x g, 10 minutes), and 50 mM Tris HCl was added to the precipitate to adjust the concentration of tissue to 10 mg (wet weight)/mℓ.
The mixture was incubated at 25°C for 90 minutes, and the resulting reaction was stopped by rapid vacuum filtration through a glass fiber filter (GF/C manufactured by Whatman Co.) followed by immediately washing three times with 5 mℓ each of ice cold 50 mM Tris HCl buffer. […] Its radioactivity was then determined by a scintillation counter (manufactured by Packard Instrument Co.).
The inhibition rate of the test compounds against the binding of A₁ […] (³H-CHA binding) was calculated from the following equation: [formula]
• 1. […] The inhibition constant (Ki value) shown in the table was calculated from Cheng-Prusoff's equation.

[3] = target: T2, A₂ receptor (Rattus norvegicus, UniProt P30543); test: Adenosine A2 receptor binding (3H-NECA binding); conditions: for inhibition at 10 µM / inhibition at 100 µM: read-out: A₂ Receptor Inhibition (%); for Ki: ³H-NECA with CPA, rat corpus striatum, read-out: A₂ Receptor Ki
T2 construct: A precipitate was prepared from rat corpus striatum; from tissue; host or cells: rat corpus striatum membrane preparation
T2 sequence (P30543 whole entry): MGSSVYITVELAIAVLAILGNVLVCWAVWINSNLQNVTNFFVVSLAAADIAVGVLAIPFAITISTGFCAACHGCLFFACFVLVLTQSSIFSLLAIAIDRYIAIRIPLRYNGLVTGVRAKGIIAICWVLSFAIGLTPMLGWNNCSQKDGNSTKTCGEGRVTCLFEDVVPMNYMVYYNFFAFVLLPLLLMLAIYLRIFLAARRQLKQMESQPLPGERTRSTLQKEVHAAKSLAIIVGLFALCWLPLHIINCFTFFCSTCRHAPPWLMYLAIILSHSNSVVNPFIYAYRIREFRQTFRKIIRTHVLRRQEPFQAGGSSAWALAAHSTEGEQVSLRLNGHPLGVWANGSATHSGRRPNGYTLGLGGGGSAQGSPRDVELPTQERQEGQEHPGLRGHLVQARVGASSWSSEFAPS
Experimental: A precipitate was prepared from rat corpus striatum in a similar manner as in 1) above. The precipitate was suspended by adding a 50 mM Tris HCl buffer containing 10 mM magnesium chloride and 0.02 unit/mg (tissue) of adenosine deaminase (manufactured by Sigma Co.) to adjust the concentration of tissue to 5 mg (wet weight)/mℓ.
The mixture was incubated at 25°C within 120 minutes. The resulting mixture was treated in the same manner as in 1) above to determine its radioactivity.
The inhibition rate of the test compound against the binding of A₂ receptor (³H-NECA binding) was calculated from the following equation: [formula]

[4] = test system: Wistar rats; test: diuretic effect; assay type: in vivo; conditions: 25 mg/kg oral, urine collected for 6 hours; for Increase in K⁺ excretion (%) / Increase in Na⁺excretion (%) / Increase in Urine (%): relative to control; for Na⁺/K⁺: relative value of control (control 1.00)
Experimental: Wistar rats (male: 150 - 300 g) were starved for 18 hours prior to the administration of the test compounds. […] Urine was collected for 6 hours after the administration. Urine volume was measured and the electrolytes (Na+ and K+) in the urine were determined with a flame photome[…], Hitachi Ltd., Japan). All parameters are expressed as relative values of control.

[5] = test system: glycerol-induced renal failure model; test: renal-protecting effect (glycerol-induced renal failure model); assay type: in vivo; conditions: male Wistar rats; for suppression of increases of the serum creatinine and of urine-nitrogen: 0.01 - 10 mg/kg i.p., 24 hours after 50% glycerol s.c. (p < 0.05); for pathological examination of removed kidneys: state of kidneys: i.p., left kidney removed 24 hours after 50% glycerol s.c.
Experimental: A renal failure is a state wherein the renal function is lowered and the homeostasis of a body fluid can be no more maintained. It is known that an acute renal failure characteristic of uriniferous tubule disorder is caused by subcutaneous or intramuscular injection of glycerol to rats [Can. J. Physiol.
Male Wistar rats were kept deprived or water for 18 hours, and served for the test. A test compound was intraperitoneally administered to the rats (dosage: 1 mℓ/kg) and the rats were anesthetized with ether and 50% glycerol was subcutaneously administered (dosage: 0.8mℓ/100g) to the rats, pinching the dorsal skin. Twenty four hours after the administration of glycerol, the rats were anesthetized with ether and 5 mℓ of blood were collected from the abdominal aorta. The collected blood was allowed to stand for 30 minutes or longer and then centrifuged at 3,000 rpm for 10 minutes, and the amounts of the serum creatinine and urine-nitrogen (UN) contained in the serum were determined by auto analyzer (Olympus AU510) or measured by a creatinine test Wako (Jaffé method) and UN Test Wako (diacetylmonooxime direct method). Both are manufactured by Wako Pure Chemicals Co.
On the other hand, the left kidneys of the blood-sampled rats were removed and placed in formalin-filled vial bottles, and used as samples for the pathological examination.

[6] = test system: zig-zag strips of the trachea; test: effects on passive Schultz-Dale reaction (antigen-induced contraction of sensitized trachea strips); parameters: species or system guinea pigs; conditions: Cavia porcellus; concentration to produce 50% relaxation of EWA (1µg/mℓ)-contracted trachea strips of passively sensitized guinea pigs; read-out: Passive S-D Reaction IC₅₀
Experimental: After 24 hours, the guinea pigs were stunned and exsanguinated, and then trachea were removed. The zig-zag strips of the trachea were prepared by the method of Emmerson, et al. [J. Pharm. […] The strips were suspended in Krebs-Henseleit solution at 37°C […] Antigen (EWA) was then introduced in the solution (final concentration; 1μg/ml), and the contraction was measured by […] After the contraction reached stable plateau, the compounds were cumulatively added in order to get concentration-relaxation curves. […]

Structure (SMILES) | Minimum lethal dose (MLD) ([1]; mouse, in vivo, 10080 min) | Ratio of Ki Values [A₂/A₁] [2] | Ki [2] [µM] | inhibition at 100 µM [2] [%] | inhibition at 10 µM [2] [%] | inhibition at 10 µM [3] [%] | inhibition at 100 µM [3] [%] | Ki [3] [µM] | Increase in K⁺ excretion (%) [4] [%] | Increase in Na⁺excretion (%) [4] [%] | Increase in Urine (%) [4] [%] | Na⁺/K⁺ [4] | suppression of increases of the serum creatinine and of urine-nitrogen [5] | pathological examination of removed kidneys: state of kidneys [5] | Minimum lethal dose (MLD) ([1]; 300 mg/kg orally administered, male dd-strain mice, observed 7 days after administration) | IC50 [6] [µM]
CCCn1c(=O)c2[nH]c([C@H]3C[C@@H]4C=C[C@@H]3C4)nc2n(CCC)c1=O (relative stereo) [Compound 1, 8-[(1R*,4S*,5S*)-2-Bicyclo[2.2.1]hepten-5-yl]-1,3-dipropylxanthine] | more than 300 mg/kg | 92.7 | 0.0055 | 99 | 99 | 88 | 97 | 0.51 | 36 | 73 | 106 | 1.27 |  |  |  | 
CCCn1c(=O)c2[nH]c([C@H]3C[C@H]4CC[C@@H]3C4)nc2n(CCC)c1=O (relative stereo) [Compound 3, 8-[(1R*,2S*,5S*)-Bicyclo[2,2,1]heptan-2-yl]-1,3-dipropylxanthine] | more than 300 mg/kg | 75.0 | 0.0044 | 100 | 100 | 83 | 90 | 0.33 | 29 | 137 | 154 | 1.84 |  |  |  | 
CCCn1c(=O)c2[nH]c([C@@H]3CC[C@H]4CCC[C@H]43)nc2n(CCC)c1=O (relative stereo) [Compound 5, 8-[(1R*,2R*,5R*)-Bicyclo[3.3.0]octan-2-yl]-1,3-dipropylxanthine] | more than 300 mg/kg | 86.8 | 0.0038 | 99 | 99 | 91 | 99 | 0.33 | 32 | 109 | 88 | 1.58 |  |  |  | 
CCCn1c(=O)c2c(nc([C@H]3C[C@@H]4C=C[C@@H]3C4)n2C)n(CCC)c1=O (relative stereo) [Compound 17, 8-[(1R*,4S*, 5S*)-2-Bicyclo[2.2.1]hepten-5-yl]-1,3-dipropyl-7-methylxanthine] | more than 300 mg/kg |  |  |  |  |  |  |  | 51 | 107 | 155 | 1.37 | significantly suppressed | significantly improved |  | 
CCCn1c(=O)[nH]c(=O)c2[nH]c([C@@H]3CC[C@H]4CCC[C@H]43)nc21 (relative stereo) [Compound 23, 8-[(1R*,2R*,5R*)-Bicyclo[3.3.0]octan-2-yl]-3-propylxanthine] |  |  |  |  |  |  |  |  |  |  |  |  | significantly suppressed | significantly improved | more than 300 mg/kg | 
CCCn1c(=O)c2[nH]c(C34CC5CC(CC(C5)C3)C4)nc2n(CCC)c1=O [Compound 13, 8-(Adamantan-1-yl)-1,3-dipropylxanthine] | more than 300 mg/kg |  | 0.0078 | 100 | 100 | 63 | 71 |  | 37 | 186 | 129 | 2.09 | significantly suppressed | significantly improved |  | 
CCCn1c(=O)c2[nH]c(C34CC5CC(CC3C5)C4)nc2n(CCC)c1=O [Compound 14, 8-(Noradamantan-3-yl)-1,3-dipropylxanthine] | more than 300 mg/kg |  |  | 101 | 101 | 63 | 77 | 0.38 | 68 | 244 | 315 | 2.05 | significantly suppressed | significantly improved |  | 
CCCn1c(=O)[nH]c(=O)c2[nH]c(C34CC5CC(CC3C5)C4)nc21 [Compound 25, 8-(Noradamantan-3-yl)-3-propylxanthine] |  |  |  |  |  |  |  |  |  |  |  |  | significantly suppressed | significantly improved |  | 17.3
CCCn1c(=O)[nH]c(=S)c2[nH]c(C34CC5CC(CC3C5)C4)nc21 [Compound 26, 8-(Noradamantan-3-yl)-3-propyl-6-thioxanthine] |  |  |  |  |  |  |  |  |  |  |  |  |  |  |  | 22.7
CCCn1c(=O)c2nc(C34CC5CC(CC3C5)C4)[nH]c2n(CCC)c1=S [Compound 31, 8-(Noradamantan-3-yl)-1,3-dipropyl-2-thioxanthine] | more than 300 mg/kg |  |  |  |  |  |  |  | 56 | 126 | 115 | 1.44 | significantly suppressed | significantly improved |  | 
CCCn1c(=S)c2[nH]c(C34CC5CC(CC3C5)C4)nc2n(CCC)c1=S [Compound 33, 8-(Noradamantan-3-yl)-1,3-dipropyl-2,6-dithioxanthine] | more than 300 mg/kg |  |  |  |  |  |  |  | 40 | 105 | 99 | 1.47 |  |  |  | 

— EP0415456A2, “Xanthine compounds” (priority 1989, dated 1991)
